Source: US9730450B2, “Use of isosorbide monoesters as antimicrobial active substances” (CLARIANT INTERNATIONAL LTD., priority 2011, dated 2017)
Converted amounts (≈) assume the structure as drawn. Read-outs that look alike come from different tables or passages of the source. Each block holds one compound with its values, some of them ahead of it.

Key:
Staphylococcus aureus = experiment: MIC agar dilution test, bacteria; assay type: cell-based; conditions: Staphylococcus aureus (B); CASO agar buffered to pH 7; corrected for dilution effect of butyl polyglycol; read-out: Minimum inhibitory concentration (MIC)
Method: (§1) Below, the antimicrobial efficacy of isosorbide caprylate 1 in butyl polyglycol against bacteria, fungi and yeasts is examined. For the tests with bacteria, isosorbide caprylate 1 was diluted with butyl polyglycol and then, at 50° C., added to liquid CASO agar (casein-peptone agar) buffered to pH 7 (+1-0.2) in various concentrations (hereinbelow referred to as compositions B1, B2, etc.). For the tests with fungi and yeasts, isosorbide caprylate 1 was diluted with butyl polyglycol and then added to liquid Sabouraud 4% dextrose agar buffered to pH 5.6 (+1-0.2) in various concentrations (hereinbelow referred to as compositions PH1, PH2, etc.). The compositions B1, B2, etc. and PH1, PH2 etc. were each poured into Petri dishes and each inoculated with identical amounts of bacteria, fungi and yeasts. The minimum inhibitory concentration (MIC) is the concentration at which inhibition of the growth of the bacteria, fungi and yeasts in the compositions B1, B2, etc. and PH1, PH2, etc. occurs.
(§2) Analogously to the determination of the antimicrobial activity of isosorbide caprylate 1, the antimicrobial activity firstly of a mixture comprising 89.6% by weight of isosorbide dicaprylate and 9.4% by weight of isosorbide monocaprylate (remainder: 1% by weight) (hereinbelow referred to as “isosorbide dicaprylate”) and, secondly, pure isosorbide was determined in further test series.

Proteus vulgaris = experiment: MIC agar dilution test, bacteria; assay type: cell-based; conditions: Proteus vulgaris (B); CASO agar buffered to pH 7; corrected for dilution effect of butyl polyglycol; read-out: Minimum inhibitory concentration (MIC)
Method: as §1, §2

Escherichia coli = experiment: MIC agar dilution test, bacteria; assay type: cell-based; conditions: Escherichia coli (B); CASO agar buffered to pH 7; corrected for dilution effect of butyl polyglycol; read-out: Minimum inhibitory concentration (MIC)
Method: as §1, §2

Pseudomonas oleovorans = experiment: MIC agar dilution test, bacteria; assay type: cell-based; conditions: Ectopseudomonas oleovorans; Pseudomonas oleovorans (B); CASO agar buffered to pH 7; corrected for dilution effect of butyl polyglycol; read-out: Minimum inhibitory concentration (MIC)
Method: as §1, §2

Klebsiella pneumoniae = experiment: MIC agar dilution test, bacteria; assay type: cell-based; conditions: Klebsiella pneumoniae (B); CASO agar buffered to pH 7; corrected for dilution effect of butyl polyglycol; read-out: Minimum inhibitory concentration (MIC)
Method: as §1, §2

Enterobacter aerogenes = experiment: MIC agar dilution test, bacteria; assay type: cell-based; conditions: Klebsiella aerogenes; Enterobacter aerogenes (B); CASO agar buffered to pH 7; corrected for dilution effect of butyl polyglycol; read-out: Minimum inhibitory concentration (MIC)
Method: as §1, §2

Citrobacter freundii = experiment: MIC agar dilution test, bacteria; assay type: cell-based; conditions: Citrobacter freundii (B); CASO agar buffered to pH 7; corrected for dilution effect of butyl polyglycol; read-out: Minimum inhibitory concentration (MIC)
Method: as §1, §2

Pseudomonas aeruginosa = experiment: MIC agar dilution test, bacteria; assay type: cell-based; conditions: Pseudomonas aeruginosa (B); CASO agar buffered to pH 7; corrected for dilution effect of butyl polyglycol; read-out: Minimum inhibitory concentration (MIC)
Method: as §1, §2

Penicillium funicolosium = experiment: MIC agar dilution test, fungi; assay type: cell-based; conditions: Penicillium funicolosium (F); Sabouraud 4% dextrose agar buffered to pH 5.6; corrected for dilution effect of butyl polyglycol; read-out: Minimum inhibitory concentration (MIC)
Method: as §1, §2

Aspergillus brasiliensis = experiment: MIC agar dilution test, fungi; assay type: cell-based; conditions: Aspergillus brasiliensis (F); Sabouraud 4% dextrose agar buffered to pH 5.6; corrected for dilution effect of butyl polyglycol; read-out: Minimum inhibitory concentration (MIC)
Method: as §1, §2

Fusarium solani = experiment: MIC agar dilution test, fungi; assay type: cell-based; conditions: Fusarium solani (F); Sabouraud 4% dextrose agar buffered to pH 5.6; corrected for dilution effect of butyl polyglycol; read-out: Minimum inhibitory concentration (MIC)
Method: as §1, §2

Penicillium minioluteum = experiment: MIC agar dilution test, fungi; assay type: cell-based; conditions: Talaromyces minioluteus; Penicillium minioluteum (F); Sabouraud 4% dextrose agar buffered to pH 5.6; corrected for dilution effect of butyl polyglycol; read-out: Minimum inhibitory concentration (MIC)
Method: as §1, §2

Aspergillus terreus = experiment: MIC agar dilution test, fungi; assay type: cell-based; conditions: Aspergillus terreus (F); Sabouraud 4% dextrose agar buffered to pH 5.6; corrected for dilution effect of butyl polyglycol; read-out: Minimum inhibitory concentration (MIC)
Method: as §1, §2

Candida albicans = experiment: MIC agar dilution test, yeasts; assay type: cell-based; conditions: Candida albicans (Y); Sabouraud 4% dextrose agar buffered to pH 5.6; corrected for dilution effect of butyl polyglycol; read-out: Minimum inhibitory concentration (MIC)
Method: as §1, §2

[1] = tested on: bacteria, fungi and yeasts; experiment: Antimicrobial efficacy, overall statement; assay type: cell-based
Method: as §1, §2

[2] = tested on: bacteria, fungi and yeasts; conditions: general statement, no test described, cited from earlier work

MIC (Staphylococcus aureus): 10000 µg/mL (≈ 68.4 mM) | MIC (Proteus vulgaris): 10000 µg/mL (≈ 68.4 mM) | MIC (Escherichia coli): 10000 µg/mL (≈ 68.4 mM) | MIC (Pseudomonas oleovorans): 10000 µg/mL (≈ 68.4 mM) | MIC (Klebsiella pneumoniae): 10000 µg/mL (≈ 68.4 mM) | MIC (Enterobacter aerogenes): 10000 µg/mL (≈ 68.4 mM) | MIC (Citrobacter freundii): 10000 µg/mL (≈ 68.4 mM) | MIC (Pseudomonas aeruginosa): 10000 µg/mL (≈ 68.4 mM) | MIC (Penicillium funicolosium): 10000 µg/mL (≈ 68.4 mM) | MIC (Aspergillus brasiliensis): 10000 µg/mL (≈ 68.4 mM) | MIC (Fusarium solani): 10000 µg/mL (≈ 68.4 mM) | MIC (Penicillium minioluteum): 10000 µg/mL (≈ 68.4 mM) | MIC (Aspergillus terreus): 10000 µg/mL (≈ 68.4 mM) | MIC (Candida albicans): 10000 µg/mL (≈ 68.4 mM)
Compound: O[C@@H]1CO[C@H]2[C@@H]1OC[C@@H]2O [isosorbide]
antimicrobial activity (in words) ([1]; summary of MIC results of Tables 1 and 2): neither isosorbide nor isosorbide dicaprylate is antimicrobially active

Compound: isosorbide monocaprylate
antimicrobial activity (in words) ([1]; concluded from activity of isosorbide caprylate 1 and inactivity of its other constituents, in particular as fungicide against fungi and yeasts): significant antimicrobial activity

Compound: CCCCCCCC(=O)O [caprylic acid]
antimicrobial activity (in words) ([2]; at a pH of 6 or above): no antimicrobial activity | antimicrobial activity (in words) [2]: antimicrobially effective
